Test results taken from patent US20230096028A1, “BICYCLIC HETEROCYCLYL COMPOUNDS AND USES THEREOF” (Revolution Medicines, Inc., priority 2019, published 2023).

Columns and labels:
[1] = test system: PC-9 cells (EGFR Ex19Del); test: Potency Assay: pERK (SOS1 pERK IC50 Assay, AlphaLISA SureFire Ultra p-ERK1/2); format: cell-based; conditions: Homo sapiens; PC-9 cells (EGFR Ex19Del), 1 hour incubation, AlphaLISA p-ERK1/2; read-out: SOS1 pERK IC50
Summary of the method: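 Cellular pERK1/2 by AlphaLISA SureFire Ultra after 1 h compound exposure (37° C., highest concentration 10 μM, 3-fold steps, duplicates) of EGFR Ex19Del PC-9 cells seeded the day before. A 4-parameter fit of signal versus log concentration gives IC50.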

[2] = target: T1, SOS1 catalytic domain (residues 564-1049) (Homo sapiens, UniProt Q07889); test: Potency Assay: binding affinity to SOS1 using Surface Plasmon Resonance (SPR); parameters: SOS1 catalytic domain (residues 564-1049) immobilized on a sensor chip; conditions: immobilized SOS1 catalytic domain (residues 564-1049), read-out: SOS1 SPR Equilibrium Kd
T1 sequence (Q07889 564-1049): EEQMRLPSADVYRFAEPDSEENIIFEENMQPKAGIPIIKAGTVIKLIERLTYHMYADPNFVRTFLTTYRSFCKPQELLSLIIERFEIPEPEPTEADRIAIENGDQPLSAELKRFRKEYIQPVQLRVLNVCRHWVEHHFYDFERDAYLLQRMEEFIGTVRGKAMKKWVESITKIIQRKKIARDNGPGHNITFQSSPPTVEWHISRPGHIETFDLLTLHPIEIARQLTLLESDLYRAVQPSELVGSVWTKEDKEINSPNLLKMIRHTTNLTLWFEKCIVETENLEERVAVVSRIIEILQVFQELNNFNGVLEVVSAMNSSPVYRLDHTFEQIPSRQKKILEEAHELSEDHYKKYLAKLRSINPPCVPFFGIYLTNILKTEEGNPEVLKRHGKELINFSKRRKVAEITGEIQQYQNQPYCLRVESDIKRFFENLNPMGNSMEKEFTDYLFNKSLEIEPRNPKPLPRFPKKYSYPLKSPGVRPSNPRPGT
Summary of the method: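 Kd was obtained by plotting binding response, taken just before association ended, versus compound concentration on a Biacore 8K. Compounds flowed at 50 μL/min over streptavidin-captured avi-SOS1 catalytic domain (~6000 RU), followed by buffer dissociation; HEPES 0.01 M/NaCl 0.15 M/0.05% P20 buffer, double-referenced.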

[3] = target: T1, SOS1 catalytic domain (residues 564-1049); test: Mode of Action Assay: inhibition of SOS1 nucleotide exchange activity (SOS1 TR-FRET IC50 Assay)

| SMILES | IC50 [1] | Kd [2] | IC50 [3] |
| --- | --- | --- | --- |
| C[C@@H](Nc1nc(Cl)nc2c1CN(C(=O)c1nccnn1)CC2)c1cc(N)cc(C(F)(F)F)c1 [Example 248] | > 1000 nM | > 400 nM | > 1000 nM |
| C[C@@H](Nc1nc(Cl)nc2c1CN(C(=O)c1ccc(-n3ccnc3)cn1)CC2)c1cc(N)cc(C(F)(F)F)c1 [Example 250] | > 1000 nM | > 400 nM | > 1000 nM |
| C[C@@H](Nc1nc(Cl)nc2c1CN(C(=O)c1ccc(N3CCOCC3)cn1)CC2)c1cc(N)cc(C(F)(F)F)c1 [Example 254] | > 1000 nM | > 400 nM | > 1000 nM |
| C[C@@H](Nc1nc(Cl)nc2c1CN(C(=O)C1(C#N)CCOCC1)C2)c1cc(N)cc(C(F)(F)F)c1 [Example 255] | < 1000 nM | < 400 nM | < 1000 nM |
| C[C@@H](Nc1nc(Cl)nc2c1CN(C(=O)C1(F)CCOCC1)C2)c1cc(N)cc(C(F)(F)F)c1 [Example 256] | < 1000 nM | < 400 nM | < 1000 nM |
| C[C@@H](Nc1nc(Cl)nc2c1CN(C(=O)CC1CCN(C)C1)C2)c1cc(N)cc(C(F)(F)F)c1 (stereo partly drawn) [Example 257] | > 1000 nM | < 400 nM | < 1000 nM |
| COC(C(=O)N1Cc2nc(Cl)nc(N[C@H](C)c3cc(N)cc(C(F)(F)F)c3)c2C1)C1CCOC1 (stereo partly drawn) [Example 259] | < 1000 nM | < 400 nM | < 1000 nM |
| C[C@@H](Nc1nc(Cl)nc2c1CN(C(=O)[C@H]1C[C@@H](O)C1)C2)c1cc(N)cc(C(F)(F)F)c1 [Example 260] | < 1000 nM | < 400 nM | < 1000 nM |
| C[C@@H](Nc1nc(Cl)nc2c1CN(C(=O)C1(C)COC1)C2)c1cc(N)cc(C(F)(F)F)c1 [Example 261] | < 1000 nM | < 400 nM | < 1000 nM |
| C[C@@H](Nc1nc(Cl)nc2c1CN(C(=O)C1(C)CCN(C)CC1)C2)c1cc(N)cc(C(F)(F)F)c1 [Example 262] | < 1000 nM | < 400 nM | < 1000 nM |
| C[C@@H](Nc1nc(Cl)nc2c1CN(C(=O)C1(F)CNC1)C2)c1cc(N)cc(C(F)(F)F)c1 [Example 263] | < 1000 nM | < 400 nM | < 1000 nM |
| C[C@@H](Nc1nc(Cl)nc2c1CN(C(=O)[C@@H]1CNC[C@@H]1C)C2)c1cc(N)cc(C(F)(F)F)c1 [Example 264] | > 1000 nM | < 400 nM | < 1000 nM |
| C[C@@H](Nc1nc(Cl)nc2c1CN(C(=O)C1(C)CN(C)C1)C2)c1cc(N)cc(C(F)(F)F)c1 [Example 265] | < 1000 nM | < 400 nM | < 1000 nM |
| C[C@@H](Nc1nc(Cl)nc2c1CN(C(=O)C1C3CNCC31)C2)c1cc(N)cc(C(F)(F)F)c1 (stereo partly drawn) [Example 266] | > 1000 nM | < 400 nM | < 1000 nM |
| C[C@@H](Nc1nc(Cl)nc2c1CN(C(=O)C1CCNCC1)C2)c1cc(N)cc(C(F)(F)F)c1 [Example 270] | > 1000 nM | < 400 nM | < 1000 nM |
| C[C@@H](Nc1nc(Cl)nc2c1CN(C(=O)C1(F)CCNCC1)C2)c1cc(N)cc(C(F)(F)F)c1 [Example 272] | < 1000 nM | < 400 nM | < 1000 nM |
| C[C@@H](Nc1nc(Cl)nc2c1CN(C(=O)C(C)(C)C)C2)c1cc(N)cc(C(F)(F)F)c1 [Example 274] | < 1000 nM | < 400 nM | < 1000 nM |
| C[C@@H](Nc1nc(Cl)nc2c1CN(C(=O)[C@@H]1COCCN1)C2)c1cccc(C(F)(F)F)c1 [Example 275] | > 1000 nM | > 400 nM | < 1000 nM |
| C[C@@H](Nc1nc(Cl)nc2c1CN(C(=O)C1COCCN1)C2)c1cccc(C(F)(F)F)c1 (stereo partly drawn) [Example 276] | > 1000 nM | > 400 nM | < 1000 nM |
| C[C@@H](Nc1nc(Cl)nc2c1CN(C(=O)[C@@H]1CNCCO1)C2)c1cccc(C(F)(F)F)c1 [Example 278] | < 1000 nM | < 400 nM | < 1000 nM |
| C[C@@H](Nc1nc(Cl)nc2c1CN(C(=O)C1(O)COC1)C2)c1cccc(C(F)(F)F)c1 [Example 279] | < 1000 nM | > 400 nM | < 1000 nM |
| C[C@@H](Nc1nc(Cl)nc2c1CN(C(=O)C1(C#N)CCN(C)CC1)C2)c1cccc(C(F)(F)F)c1 [Example 280] | < 1000 nM | < 400 nM | < 1000 nM |
| C[C@@H](Nc1nc(Cl)nc2c1CN(C(=O)[C@H]1CNCCO1)C2)c1cccc(C(F)(F)F)c1 [Example 281] | < 1000 nM | < 400 nM | < 1000 nM |
| C[C@@H](Nc1nc(Cl)nc2c1CN(C(=O)C1(F)CNC1)C2)c1cccc(C(F)F)c1F [Example 282] | < 1000 nM | < 400 nM | < 1000 nM |
| C[C@@H](Nc1nc(Cl)nc2c1CN(C(=O)CN1CCN(C)CC1)C2)c1cccc(C(F)F)c1F [Example 283] | < 1000 nM | < 400 nM | < 1000 nM |
| C[C@@H](Nc1nc(Cl)nc2c1CN(C(=O)C1(F)CCNCC1)C2)c1cccc(C(F)F)c1F [Example 284] | < 1000 nM | < 400 nM | < 1000 nM |
| C[C@@H](Nc1nc(Cl)nc2c1CN(C(=O)C1(N)COC1)C2)c1cccc(C(F)F)c1F [Example 285] | < 1000 nM | < 400 nM | < 1000 nM |

Now from value to compound:

| IC50 [1] | Kd [2] | IC50 [3] | SMILES |
| --- | --- | --- | --- |
| < 1000 nM | < 400 nM | < 1000 nM | C[C@@H](Nc1nc(Cl)nc2c1CN(C(=O)C1CCN1)C2)c1cccc(C(F)F)c1F (stereo partly drawn) [Example 286] |
| < 1000 nM | < 400 nM | < 1000 nM | C[C@@H](Nc1nc(Cl)nc2c1CN(C(=O)C1(N)CCOCC1)C2)c1cccc(C(F)F)c1F [Example 287] |
| < 1000 nM | < 400 nM | < 1000 nM | C[C@@H](Nc1nc(Cl)nc2c1CN(C(=O)C1CNCCO1)C2)c1cccc(C(F)F)c1F (stereo partly drawn) [Example 288] |
| < 1000 nM | < 400 nM | < 1000 nM | COC1CC(N)(C(=O)N2Cc3nc(Cl)nc(N[C@H](C)c4cccc(C(F)F)c4F)c3C2)C1 (stereo partly drawn) [Example 289] |
| < 1000 nM | < 400 nM | < 1000 nM | C[C@@H](Nc1nc(Cl)nc2c1CN(C(=O)[C@]13CN[C@H](CO1)C3)C2)c1cccc(C(F)F)c1F [Example 290] |
| < 1000 nM | > 400 nM | < 1000 nM | C[C@@H](Nc1nc(Cl)nc2c1CN(C(=O)CC1COCCN1)C2)c1cccc(C(F)F)c1F (stereo partly drawn) [Example 291] |
| < 1000 nM | < 400 nM | < 1000 nM | C[C@@H](Nc1nc(Cl)nc2c1CN(C(=O)CN1CCOCC1)C2)c1cccc(C(F)F)c1F [Example 292] |
| < 1000 nM | < 400 nM | < 1000 nM | C[C@@H](Nc1nc(Cl)nc2c1CN(C(=O)C1CNCCOC1)C2)c1cccc(C(F)F)c1F (stereo partly drawn) [Example 293] |
| < 1000 nM | < 400 nM | < 1000 nM | C[C@@H](Nc1nc(Cl)nc2c1CN(C(=O)C1(C#N)CCNCC1)C2)c1cccc(C(F)F)c1F [Example 294] |
| < 1000 nM | < 400 nM | < 1000 nM | C[C@@H](Nc1nc(Cl)nc2c1CN(C(=O)C1CN(C3CCOC3)C1)C2)c1cccc(C(F)F)c1F (stereo partly drawn) [Example 295] |
| < 1000 nM | < 400 nM | < 1000 nM | CC(CC(=O)N1Cc2nc(Cl)nc(N[C@H](C)c3cccc(C(F)F)c3F)c2C1)N1CCNCC1 (stereo partly drawn) [Example 296] |
| < 1000 nM | < 400 nM | < 1000 nM | C[C@@H](Nc1nc(Cl)nc2c1CN(C(=O)C13CN(C1)S(=O)(=O)C3)C2)c1cccc(C(F)F)c1F [Example 297] |
| > 1000 nM | < 400 nM | < 1000 nM | C[C@@H](Nc1nc(Cl)nc2c1CN(C(=O)C1CN(C)CCO1)C2)c1cccc(C(F)F)c1F (stereo partly drawn) [Example 298] |
| < 1000 nM | < 400 nM | < 1000 nM | C[C@@H](Nc1nc(Cl)nc2c1CN(C(=O)C1(C#N)CCN(C)CC1)C2)c1cccc(C(F)F)c1F [Example 299] |
| < 1000 nM | < 400 nM | < 1000 nM | C[C@@H](Nc1nc(Cl)nc2c1CN(C(=O)C1(O)COC1)C2)c1cccc(C(F)F)c1F [Example 300] |
| < 1000 nM | < 400 nM | < 1000 nM | COC1(C(=O)N2Cc3nc(Cl)nc(N[C@H](C)c4cccc(C(F)F)c4F)c3C2)CNC1 [Example 302] |
| < 1000 nM | < 400 nM | < 1000 nM | C[C@@H](Nc1nc(Cl)nc2c1CN(C(=O)[C@@H]1CNCCO1)C2)c1cccc(C(F)F)c1F [Example 303] |
| > 1000 nM | < 400 nM | < 1000 nM | C[C@@H](Nc1nc(Cl)nc2c1CN(C(=O)[C@H]1COCCN1)C2)c1cccc(C(F)F)c1F [Example 304] |
